We go through three compounds from publication PMC2360155, “Novel retinoic acid metabolism blocking agents have potent inhibitory activities on human breast cancer cells and tumour growth” (British Journal of Cancer, 2007).

One assay has as its system Bad. Kind of assay: Western immunoblotting for Bad in MCF-7 and T47D cells. As to conditions: 1, 5 and 10 μM each; 6 days; no significant dose-dependent effect. In kind it is cell-based, human. The method, then:
(§1) At the end of the treatment, cells were scrapped and collected by washing with ice-cold PBS in a centrifuge tube. Cells were centrifuged at 2500 r.p.m. for 10 min, the pellet was again washed with ice-cold PBS and centrifuged. The cell pellet was then suspended in chilled cell lysis buffer (0.1 M Tris–HCl, 0.5% Triton X-100, protease inhibitor cocktail) and sonicated on ice for 10–15 s. The homogenate was kept on ice for 30 min and then centrifuged at 13 000 r.p.m. for 30 min. The supernatant was used as cell lysate. The cell lysates were stored at −80°C. Protein concentration of the cell lysates was determined using Bio-Rad protein assay reagents.
(§2) Protein lysates from MCF-7 and T47D cells were subjected to sodium dodecyl sulphate–polyacrylamide gel electrophoresis (SDS–PAGE) and immunoblotted for different proteins. […] Immunoreactive bands were visualised using the enhanced chemiluminescence detection reagents and analysis system (Amersham Bioscences) according to the manufacturer's instructions and quantified by densitometry using ImageQuant software version 5.
Figure 7 (A) Western immunoblotting of whole-cell lysates of treated MCF-7 and T47D cells for the expression of Bad. […] Numbers below the blot show fold increase in expression of the protein as analysed by ImageQuant densitometry analysis. […]
(Immunoblotting shows a protein as a band on a membrane.)

A further assay deals with caspase-9. The assay can be described thus: Western immunoblotting for caspase-9 in T47D cells. As to conditions: 6 days. Type of assay: cell-based, human. How it is done:
as §1
Protein lysates from MCF-7 and T47D cells were subjected to sodium dodecyl sulphate–polyacrylamide gel electrophoresis (SDS–PAGE) and immunoblotted for different proteins. Equal amounts of protein (25–50 μg) were subjected to SDS–PAGE at 60 V for 3 h using the mini PROTEAN3 electrophoresis module assembly (Bio-Rad, Hercules, CA, USA), and transferred to nitrocellulose membranes (Hybond ECL, Amersham). Immunodetections were carried out using antibodies against CK 8/18 (1° antibody – 1 : 8000 in 10% milk PBST), E-cadherin (1° antibody – 1 : 1000 in 5% milk in TBST) and ER-α (1° antibody – 1 : 200 in 5% milk PBST) purchased from Santa Cruz Biotechnology Inc. Antibodies against PARP (1° antibody – 1 : 1000 in 5% milk TBST), cyclin- D1 (1° antibody – 1 : 2000 in 10% milk TBST), caspase-9 (1° antibody – 1 : 1000 in 10% milk TBST) and BAD (1° antibody – 1 : 1000 in 5% BSA TBST) were obtained from Cell Signaling Technology. Antibody for β-actin was obtained from Calbiochem (CA, USA). Secondary anti-mouse IgG HRP conjugate antibody was purchased from Calbiochem and Bio-Rad. Secondary anti-rabbit IgG HRP conjugate antibody was bought from Bio-Rad as well as from Kirkegaard and Perry laboratories (Gaithersburg, MD, USA). Immunoreactive bands were visualised using the enhanced chemiluminescence detection reagents and analysis system (Amersham Bioscences) according to the manufacturer's instructions and quantified by densitometry using ImageQuant software version 5.
Figure 7 (A) Western immunoblotting of whole-cell lysates of treated MCF-7 and T47D cells for the expression of Bad. […] Numbers below the blot show fold increase in expression of the protein as analysed by ImageQuant densitometry analysis. Membranes were stripped and probed for β-actin to verify equal protein loading. Primary antibody (Cell Signaling Technology) 1 : 1000 in 5% BSA TBST overnight at 4°C and secondary antibody (anti-rabbit) 1 : 2000 for 1 h at RT. This experiment was repeated twice with similar results. […] Numbers below the blot show fold increase in the active form of caspase-9 as compared with control. Membrane was stripped and probed for β-actin to verify equal amount of protein loading. The primary and secondary antibodies and their dilutions are as follows: primary antibody (Cell Signaling Technology), 1 : 1000 in 10% milk TBST overnight at 4°C and secondary antibody (anti-rabbit) 1 : 2000 in 10% milk TBST for 1 h at RT. Densitometry analysis was performed by ImageQuant software. This experiment was repeated twice with similar results. (C) Western immunoblotting of whole-cell lysates of treated MCF-7 and T47D cells for the expression of full-length and cleaved PARP. […] T47D cells were treated with RAMBAs (VN/50-1 and VN/14-1) for 6 days and then cell lysates were electrophoresed using 10% SDS–PAGE and subjected to Western blotting. Lane 1: control; lanes 2–4: VN/50-1 (1, 5 and 10 μM); lanes 5–7: VN/14-1 (1, 5 and 10 μM). Numbers below the blot show fold increase in expression of the protein as analysed by ImageQuant densitometry analysis. Membranes were stripped and probed for β-actin to verify equal protein loading. Primary antibody (Cell Signaling Technology) 1 : 1000 in 5% milk TBST overnight at 4°C and secondary antibody (anti-rabbit) 1 : 2000 for 1 h at RT. […]

For another assay, the system named is MCF-7 tumour xenografts. The assay can be described thus: In vivo antitumour study, ATRA and VN/14-1 alone or in combination, MCF-7 tumour xenografts. The following applies: single agents: ATRA 33.0, VN/14-1 16.5 μmol kg^−1 day^−1; 36 days. Also on record: species or system ovariectomised female athymic nude mice. How it is done:
The second experiment was similar to that described above, but consisted of only four groups. When the tumour volume has reached about 100 mm^3, the mice were randomly divided in to four groups of five mice each. […] These treatments continued for 36 days and the tumours were measured and processed as described above.
Procedure was similar to that described in Figure 8A.

In the next assay the test system is ER-α. Kind of assay: Western immunoblotting for ER-α in MCF-7 cells. Type of assay: cell-based, human. The following applies: 1–10 μM, 6 days, dose-dependent. How it is done: as §1, §2
Figure 4 Western immunoblotting analysis of whole-cell lysates of treated MCF-7 cells for the expression of ER-α. […] Numbers below the blot show fold increase in expression of the protein as analysed by ImageQuant densitometry analysis. […]

The next assay deals with T1, RARβ (Mus musculus, UniProt P22605).
T1 construct: expressed in transfected cells; host or cells: CV-1 cells
T1 sequence (P22605 1-448 isoform P22605-3): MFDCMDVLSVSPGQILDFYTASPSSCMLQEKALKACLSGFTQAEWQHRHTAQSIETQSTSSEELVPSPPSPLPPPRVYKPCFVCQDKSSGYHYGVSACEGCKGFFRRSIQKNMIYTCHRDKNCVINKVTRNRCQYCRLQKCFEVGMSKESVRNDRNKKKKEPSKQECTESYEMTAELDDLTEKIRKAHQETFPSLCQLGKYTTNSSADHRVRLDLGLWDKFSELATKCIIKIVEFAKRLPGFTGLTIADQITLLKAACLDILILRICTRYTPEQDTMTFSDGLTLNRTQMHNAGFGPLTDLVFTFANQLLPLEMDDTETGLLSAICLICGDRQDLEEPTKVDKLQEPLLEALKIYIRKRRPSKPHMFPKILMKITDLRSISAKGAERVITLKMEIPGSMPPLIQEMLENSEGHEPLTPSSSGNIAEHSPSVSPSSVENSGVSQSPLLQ
Kind of assay: Transactivation assay (RARE-CAT reporter, CV-1 cells), RARβ. As to conditions: 50% of maximal activity obtained with 10^−6 M all-trans-RA. Type of assay: cell-based. The method, then: Briefly, CV-1 cells were cotransfected with 4 μg RAR subtype (RARα, RARβ or RARγ) expression vector construct in pSG5, 4 μg RARE-CAT reporter DNA and 1 μg pCMV-β-gal DNA. Twenty-four hours following transfection, the cells were treated with various concentrations of each RAMBA ranging from 10^−11–10^−5 M along with an ethanol carrier control. Additional cells were treated with 10^−6 M all-trans-RA for normalisation. Twenty-four hours later, the cells were harvested and CAT and β-gal activities were assayed.

As to `CC1=C(/C=C/C(C)=C/C=C/C(C)=C/C(=O)O)C(C)(C)CCC1` [ATRA, all-trans-retinoic acid, reference compound], in the assay on Bad, the “Upregulation of Bad protein” value is listed as “about two-fold”. The “Expression of procaspase-9 (47 kDa), control = 1” value (shortened to “Expression … control = 1”) in the assay on caspase-9 (5 μM) was found to be 0.4 fold; with caspase-9 (10 μM) it was 0.3 fold. The “Increase of active form of caspase-9 (37 kDa) compared with untreated control” value (from here on “Increase of active form … with untreated control”) worked out at 1.7 fold with caspase-9 (5 μM) and 1.8 fold in the assay with caspase-9 (10 μM). In addition, the “Tumour growth inhibition compared with controls (in words)” value with MCF-7 tumour xenografts is given as “modest tumour growth inhibition”. Further, in the assay on ER-α, the “Increase in expression of ER-α” value is recorded as “from two- to eight-fold”.

As for `CC1=C(/C=C/C(C)=C/C=C/C(C)=C/C(=O)O)C(C)(C)CCC1n1ccnc1` (stereo not shown) [VN/14-1], the “Upregulation of Bad protein” value in the assay on Bad was “about two-fold”. Also, in the assay on caspase-9 (5 μM), the “Expression … control = 1” value amounted to 0.4 fold and the “Increase of active form … with untreated control” value is recorded as 1.7 fold. Moreover, in the assay on caspase-9 (10 μM), the “Expression … control = 1” value was 0.7 fold and the “Increase of active form … with untreated control” value was 1.7 fold. A half-maximal response at RARβ (EC50) required 1500 nM. For the same compound, the “Tumour growth inhibition compared with controls (in words)” value with MCF-7 tumour xenografts is “modest tumour growth inhibition”. In the assay on ER-α, the “Increase in expression of ER-α” value is given as “from four- to six-fold”.

Turning to `CC1=C(/C=C/C(C)=C/C=C/C(C)=C\C(=O)Nc2ccc(O)cc2)C(C)(C)CCC1n1ccnc1` (stereo not shown) [VN/69-1], the EC50 (usually the concentration giving half of the maximal effect) at RARβ is above 10000 nM.
